# From ChEMBL document CHEMBL1649479, “In vitro activity of doripenem against Burkholderia pseudomallei” (2009)
# Key:
# Type in all cases: functional
# [1] = system: Burkholderia pseudomallei; assay: Antimicrobial activity against Burkholderia pseudomallei by agar dilution method
# [2] = system: Burkholderia pseudomallei; assay: Antimicrobial activity against Burkholderia pseudomallei by Etest method
# [3] = system: Burkholderia pseudomallei; assay: Selectivity ratio of MIC for Burkholderia pseudomallei by agar dilution method to MIC for Burkholderia pseudomallei by Etest method
# [4] = system: Pseudomonas aeruginosa; assay: Antimicrobial activity against Pseudomonas aeruginosa ATCC 27853 by agar dilution method
# [5] = system: Escherichia coli; assay: Antimicrobial activity against Escherichia coli ATCC 25922 by agar dilution method
# [6] = Burkholderia pseudomallei, read-out: MIC90
SMILES,MIC90 [1],inhibition zone (IZ) [1] [mm],MIC50 ([1]; Burkholderia pseudomallei) [mg/L],"MIC90 [1, 6] [mg/L]",MIC [2] [mg/L],MIC50 [2] [mg/L],MIC90 [2] [mg/L],Ratio [3],MIC [4] [mg/L],MIC [5] [mg/L]
C[C@@H](O)[C@H]1C(=O)N2C(C(=O)O)=C(S[C@@H]3CN[C@H](CNS(N)(=O)=O)C3)[C@H](C)[C@H]12 [DORIPENEM],<=2 ug ml-1,24,1,1.5,0.19,0.5,0.75,2,0.125,0.012
C[C@@H](O)[C@H]1C(=O)N2C(C(=O)O)=C(SCCNC=N)C[C@H]12 [IMIPENEM ANHYDROUS],,,1,1,,0.5,1,,,
C[C@@H](O)[C@H]1C(=O)N2C(C(=O)O)=C(S[C@@H]3CN[C@H](C(=O)N(C)C)C3)[C@H](C)[C@H]12 [MEROPENEM],,,3,4,,1,2,,,
